Reference: ChEMBL document CHEMBL1201862, “PubChem BioAssay data set” (2004)
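Test compounds were applied to cells in 96-well plates for 48 hours at 5 doses. GI50: concentration for 50% inhibition of growth.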 Activity calls are given as the source filed them. No stated cut-off is given here; in the data, active = GI50 up to about 1.1 µM and inactive = higher.

What was measured:
Experiment in all cases: growth of human tumour cells (NCI), 48 h
[1] = system: SK-MEL-28
[2] = system: CAKI-1
[3] = system: A549
[4] = system: TK-10
[5] = system: UO-31
[6] = system: K562
[7] = system: SK-MEL-5
[8] = system: M14
[9] = system: Hs-578T
[10] = system: LOX IMVI
[11] = system: ACHN
[12] = system: HOP-62
[13] = system: SK-MEL-2
[14] = system: 786-0
[15] = system: HT-29
[16] = system: OVCAR-3
[17] = system: HCT-116
[18] = system: CCRF-CEM
[19] = system: SNB-75

| Compound | GI50 [1] | GI50 [2] | GI50 [3] | GI50 [4] | GI50 [5] | GI50 [6] | GI50 [7] | GI50 [8] | GI50 [9] | GI50 [10] | GI50 [11] | GI50 [12] | GI50 [13] | GI50 [14] | GI50 [15] | GI50 [16] | GI50 [17] | GI50 [18] | GI50 [19] |
| --- | --- | --- | --- | --- | --- | --- | --- | --- | --- | --- | --- | --- | --- | --- | --- | --- | --- | --- | --- |
| Nc1ccc(Oc2ccc(C34CC5CC(C3)CC(c3ccc(Oc6ccc(N)c(O)c6)cc3)(C5)C4)cc2)cc1O | 2.48 µM (inactive) | 1.93 µM (inactive) | 1.64 µM (inactive) | 3.3 µM (inactive) | 1.77 µM (inactive) | 3.3 µM (inactive) | 1.61 µM (inactive) | 1.63 µM (inactive) | 2.02 µM (inactive) | 1.69 µM (inactive) | 1.72 µM (inactive) | 3.47 µM (inactive) | 2.07 µM (inactive) | 4.36 µM (inactive) | 2.05 µM (inactive) | 2.03 µM (inactive) | 1.39 µM (inactive) |  |  |
| N[C@@H](CCC(=O)NC(Cc1ccccc1)C(=O)NCP(=O)(O)O)C(=O)O (some centres not stated) | > 100 µM (inactive) |  | > 100 µM (inactive) | > 100 µM (inactive) | > 100 µM (inactive) | > 100 µM (inactive) | > 100 µM (inactive) |  | > 100 µM (inactive) | > 100 µM (inactive) | > 100 µM (inactive) | > 100 µM (inactive) | > 100 µM (inactive) | > 100 µM (inactive) | > 100 µM (inactive) | > 100 µM (inactive) | > 100 µM (inactive) |  |  |
| COc1ccc(/C=c2/sc3n(c2=O)NC2(CCCCC2)NN=3)cc1 | > 100 µM (inactive) | > 100 µM (inactive) | > 100 µM (inactive) | > 100 µM (inactive) | > 100 µM (inactive) | > 100 µM (inactive) | > 100 µM (inactive) | > 100 µM (inactive) |  | > 100 µM (inactive) |  |  | > 100 µM (inactive) | > 100 µM (inactive) | > 100 µM (inactive) | > 100 µM (inactive) | > 100 µM (inactive) | > 100 µM (inactive) | 92.7 µM (inactive) |
| COC(=O)c1cc(NC(=O)c2cc(NC(=O)c3cc([N+](=O)[O-])cn3C)cn2C)cn1C | > 100 µM (inactive) | 69.2 µM (inactive) | > 100 µM (inactive) | 20.3 µM (inactive) | 68.4 µM (inactive) | 61.9 µM (inactive) | 10.2 µM (inactive) | > 100 µM (inactive) |  | 56.2 µM (inactive) | 66.1 µM (inactive) | > 100 µM (inactive) | 80.2 µM (inactive) | > 100 µM (inactive) | > 100 µM (inactive) | > 100 µM (inactive) | 43.4 µM (inactive) | > 100 µM (inactive) | > 100 µM (inactive) |
| COC(=O)c1c(C)nc(C)c(N=O)c1-c1ccccc1C(F)(F)F | 14.9 µM (inactive) | 11 µM (inactive) | > 100 µM (inactive) | 13.8 µM (inactive) | 14.4 µM (inactive) | 8.41 µM (inactive) | 26.5 µM (inactive) | 20 µM (inactive) | 19 µM (inactive) | 14.7 µM (inactive) | 32.9 µM (inactive) | > 100 µM (inactive) | 36.1 µM (inactive) | 17.6 µM (inactive) | 15.7 µM (inactive) | 17.3 µM (inactive) | 16.4 µM (inactive) | 6 µM (inactive) |  |
| Nc1ncnc2c1cnn2Cc1cn(COCC(O)CO)nn1 (configuration not stated) | > 100 µM (inactive) | > 100 µM (inactive) | > 100 µM (inactive) | > 100 µM (inactive) | > 100 µM (inactive) |  | > 100 µM (inactive) | > 100 µM (inactive) | 14.4 µM (inactive) | > 100 µM (inactive) | > 100 µM (inactive) | > 100 µM (inactive) | > 100 µM (inactive) | > 100 µM (inactive) | > 100 µM (inactive) | > 100 µM (inactive) | > 100 µM (inactive) | > 100 µM (inactive) |  |
| Clc1ccc2c(NC3CCC(N4CCCCC4)CC3)ccnc2c1 (configuration not stated) | 18.6 µM (inactive) | 22.2 µM (inactive) | 31.8 µM (inactive) | 18.4 µM (inactive) | 13.9 µM (inactive) | 3.3 µM (inactive) | 15.2 µM (inactive) | 5.16 µM (inactive) | 27.2 µM (inactive) | 14.9 µM (inactive) | 32.6 µM (inactive) | 29.9 µM (inactive) | 18.2 µM (inactive) | 15.4 µM (inactive) | 11.4 µM (inactive) | 20.8 µM (inactive) | 13.4 µM (inactive) | 6.03 µM (inactive) |  |
| COc1ccc2c(c1)OCC1Cc3cc4c(cc3OC21)OCO4 (configuration not stated) |  | 47 µM (inactive) | 38.8 µM (inactive) | 28.1 µM (inactive) | 38.6 µM (inactive) | 33.1 µM (inactive) | 16.8 µM (inactive) | 32.1 µM (inactive) |  | 19.4 µM (inactive) | 97.3 µM (inactive) | 41.2 µM (inactive) | 30 µM (inactive) | 34.8 µM (inactive) | 35.1 µM (inactive) | 47.9 µM (inactive) | 31 µM (inactive) | 51.1 µM (inactive) |  |
| O=C(CCC(=O)C1Cc2ccccc2C1=O)Nc1cccc(C(F)(F)F)c1 (configuration not stated) | > 10 µM (inactive) | > 100 µM (inactive) | > 100 µM (inactive) | > 100 µM (inactive) | > 100 µM (inactive) | > 100 µM (inactive) | > 100 µM (inactive) | > 100 µM (inactive) |  | > 100 µM (inactive) | > 100 µM (inactive) | > 100 µM (inactive) | > 100 µM (inactive) | > 100 µM (inactive) | > 100 µM (inactive) | > 100 µM (inactive) | > 100 µM (inactive) | > 100 µM (inactive) |  |
| c1ccc(-n2nc3ccc4nonc4c3n2)cc1 | > 100 µM (inactive) | > 100 µM (inactive) | > 100 µM (inactive) | > 100 µM (inactive) |  | > 100 µM (inactive) | > 100 µM (inactive) | > 100 µM (inactive) |  | > 100 µM (inactive) | > 100 µM (inactive) | > 100 µM (inactive) | > 100 µM (inactive) | > 100 µM (inactive) | > 100 µM (inactive) | > 100 µM (inactive) | > 100 µM (inactive) | > 100 µM (inactive) | 49.1 µM (inactive) |
| CC(=O)NC1=C(NCCC(C)C)C(=O)c2ccccc2C1=O | > 50 µM (inactive) |  | > 50 µM (inactive) | > 50 µM (inactive) | > 50 µM (inactive) | > 50 µM (inactive) | > 50 µM (inactive) | > 50 µM (inactive) |  | > 50 µM (inactive) | 0.0301 µM (active) | > 50 µM (inactive) | > 50 µM (inactive) | > 50 µM (inactive) | > 50 µM (inactive) | > 50 µM (inactive) | > 50 µM (inactive) | > 50 µM (inactive) | > 50 µM (inactive) |
| COC(=O)C1=C(C)C(=O)[C@]23C(CCCC[C@H]12)C(=O)[C@H](C(=O)OC)C3C (some centres not stated) | > 100 µM (inactive) | > 100 µM (inactive) | > 100 µM (inactive) | > 100 µM (inactive) | > 100 µM (inactive) | > 100 µM (inactive) |  | > 100 µM (inactive) | > 100 µM (inactive) | > 100 µM (inactive) | > 100 µM (inactive) | > 100 µM (inactive) |  | > 100 µM (inactive) | > 100 µM (inactive) | > 100 µM (inactive) | > 100 µM (inactive) | > 100 µM (inactive) |  |
